In patent US10300065B2, “Method of treating or prevention of atherothrombotic events in patients with history of myocardial infarction” (ASTRAZENECA AB, priority 2015, dated 2019):

Test system: patients with a history of myocardial infarction
Experiment: PEGASUS-TIMI 54 trial, efficacy endpoints (intention-to-treat / full analysis set)
Assay type: in vivo, human
Conditions: for ischemic events prevented if 10,000 patients were started on treatment versus placebo: intention-to-treat data
Text: The PEGASUS-TIMI 54 trial (also referred to as the PEGASUS trial or PEGASUS study herein) was a randomized, double-blind, placebo-controlled multinational clinical trial that enrolled over 21,000 patients at 1,161 sites in 31 countries. The protocol was approved by the relevant ethics committees at all participating sites. In the U.S., the PEGASUS trial was assigned a ClinicalTrials.gov number of NCT01225562.
Patients could be randomized regardless of their prior adenosine diphosphate (ADP) receptor blocker therapy or a lapse in therapy.
Randomization was performed using a central computerized telephone or web based system, and allocation was double-blind.
All patients enrolled in the PEGASUS trial were instructed to take open label aspirin at a dose of 75 to 150 mg daily.
A total of 1360 primary endpoint events would be required to provide approximately 90% power to detect a 20% relative risk reduction with the 90 mg twice daily dose and approximately 83% power to detect a 19% relative risk reduction with the 60 mg twice daily dose when each dose was compared individually with placebo. The primary efficacy analysis was conducted on an intention-to-treat basis, with each of the two doses individually compared to placebo, as a time to event analysis from randomization to the first occurrence of any element of the primary composite endpoint: cardiovascular death, myocardial infarction, or stroke. […] An exploratory analysis of both doses combined compared with placebo was prespecified.

[1] = 60 mg bid vs. placebo (N = 6958)
[2] = 90 mg bd, 5651 patients with a coronary stent
[3] = 90 mg bid (N = 7050), at 3 years
[4] = 90 mg bid vs. placebo (N = 6988)

Structure (SMILES): CCCSc1nc(N[C@@H]2C[C@H]2c2ccc(F)c(F)c2)c2nnn([C@@H]3C[C@H](OCCO)[C@@H](O)[C@H]3O)c2n1 [Ticagrelor, (1S,2S,3R,5S)-3-[7-{[(1R,2S)-2-(3,4-difluorophenyl)cyclopropyl]amino}-5-(propylthio)-3H-[1,2,3]-triazolo[4,5-d]pyrimidin-3-yl]-5-(2-hydroxyethoxy)cyclopentane-1,2-diol]
- Irreversible harm (CV death, MI, stroke, ICH, or fatal bleeding): RRR (%) [1]: 14%
- Net clinical benefit (CV death, MI, stroke, or TIMI major bleeding): HR [1]: 0.95
- Net clinical benefit (CV death, MI, stroke, or TIMI major bleeding): RRR (%) [1]: 5%
- ischemic events prevented if 10,000 patients were started on treatment versus placebo (60 mg bid): 42
- Time to first stent thrombosis: HR (90 mg bd vs placebo): 0.64
- Composite of CV Death/MI/Stroke, landmark: KM % at 12 months (90 mg bd, 1-360 days): 2.8%
- Composite of CV Death/MI/Stroke, landmark: Patients with events (90 mg bd, 1-360 days): 198
- Composite of CV Death/MI/Stroke, landmark: Patients with events (%) (90 mg bd, 1-360 days): (2.8%)
- Stent thrombosis: Patients (%) with events [2]: (0.6%)
- Stent thrombosis: Patients with events [2]: 32
- Composite of CV Death/MI/Stroke, landmark: Patients with events (90 mg bd, 361 days or more): 295
- Composite of CV Death/MI/Stroke, landmark: Patients with events (%) (90 mg bd, 361 days or more): (4.4%)
- Stent thrombosis: KM % (90 mg bd, at 36 months): 0.6%
- Composite of CV Death/MI/Stroke, landmark: KM % at 24 months (90 mg bd, cumulative from day 361 to day 720): 2.4%
- Composite of CV Death/MI/Stroke, landmark: KM % at 36 months (90 mg bd, cumulative from day 361 to day 1080): 5.2%
- MI: ARR (%) (90 mg bid): 0.85%
- MI: NNT (90 mg bid): 118
- Stroke: ARR (%) (90 mg bid): 0.33%
- Stroke: NNT (90 mg bid): 303
- All Stroke: 3-year Kaplan-Meier estimate (90 mg bid (N = 7050)): (1.61) %
- All Stroke: n (90 mg bid (N = 7050)): 100
- Cardiovascular Death or Myocardial infarction: 3-year Kaplan-Meier estimate (90 mg bid (N = 7050)): (6.79) %
- Cardiovascular Death or Myocardial infarction: n (90 mg bid (N = 7050)): 424
- Cardiovascular Death, Myocardial infarction, or Stroke: 3-year Kaplan-Meier estimate (90 mg bid (N = 7050)): (7.85) %
- Cardiovascular Death, Myocardial infarction, or Stroke: n (90 mg bid (N = 7050)): 493
- Cardiovascular Death: 3-year Kaplan-Meier estimate (90 mg bid (N = 7050)): (2.94) %
- Cardiovascular Death: n (90 mg bid (N = 7050)): 182
- Coronary Heart Disease Death or Myocardial infarction: 3-year Kaplan-Meier estimate (90 mg bid (N = 7050)): (5.59) %
- Coronary Heart Disease Death or Myocardial infarction: n (90 mg bid (N = 7050)): 350
- Coronary Heart Disease Death, Myocardial infarction, or Stroke: 3-year Kaplan-Meier estimate (90 mg bid (N = 7050)): (6.99) %
- Coronary Heart Disease Death, Myocardial infarction, or Stroke: n (90 mg bid (N = 7050)): 438
- Coronary Heart Disease Death: 3-year Kaplan-Meier estimate (90 mg bid (N = 7050)): (1.53) %
- Coronary Heart Disease Death: n (90 mg bid (N = 7050)): 97
- Death from any cause: 3-year Kaplan-Meier estimate (90 mg bid (N = 7050)): (5.15) %
- Death from any cause: n (90 mg bid (N = 7050)): 326
- Hospitalization for Unstable Angina: n (90 mg bid (N = 7050)): 33
- Ischemic Stroke: 3-year Kaplan-Meier estimate (90 mg bid (N = 7050)): (1.41) %
- Ischemic Stroke: n (90 mg bid (N = 7050)): 88
- Myocardial infarction: 3-year Kaplan-Meier estimate (90 mg bid (N = 7050)): (4.40) %
- Myocardial infarction: n (90 mg bid (N = 7050)): 275
- Transient Ischemic Attack: n (90 mg bid (N = 7050)): 17
- Urgent Coronary Revascularization for Unstable Angina: n (90 mg bid (N = 7050)): 74
- Hospitalization for Unstable Angina: (%) [3]: (0.50) %
- Transient Ischemic Attack: (%) [3]: (0.27) %
- Urgent Coronary Revascularization for Unstable Angina: (%) [3]: (1.16) %
- Cardiovascular Death, Myocardial infarction, or Stroke: 3-year Kaplan-Meier estimate (90 mg bid (N = 7050), listed as ticagrelor): 7.85%
- All Stroke: HR (90 mg bid vs Placebo): 0.82
- Cardiovascular Death or Myocardial infarction: HR (90 mg bid vs Placebo): 0.85
- Cardiovascular Death, Myocardial infarction, or Stroke: HR (90 mg bid vs Placebo): 0.85
- Cardiovascular Death: HR (90 mg bid vs Placebo): 0.87
- Coronary Heart Disease Death or Myocardial infarction: HR (90 mg bid vs Placebo): 0.81
- Coronary Heart Disease Death, Myocardial infarction, or Stroke: HR (90 mg bid vs Placebo): 0.82
- Coronary Heart Disease Death: HR (90 mg bid vs Placebo): 0.73
- Coronary stent thrombosis: RRR (90 mg bid vs Placebo): 36%
- Death from any cause: HR (90 mg bid vs Placebo): 1.00
- Hospitalization for Unstable Angina: HR (90 mg bid vs Placebo): 0.89
- Ischemic Stroke: HR (90 mg bid vs Placebo): 0.85
- Myocardial infarction: HR (90 mg bid vs Placebo): 0.81
- Transient Ischemic Attack: HR (90 mg bid vs Placebo): 1.00
- Urgent Coronary Revascularization for Unstable Angina: HR (90 mg bid vs Placebo): 0.97
- coronary heart disease death, myocardial infarction, or stroke: RRR (90 mg bid vs Placebo): 18%
- Irreversible harm (CV death, MI, stroke, ICH, or fatal bleeding): HR [4]: 0.88
- Irreversible harm (CV death, MI, stroke, ICH, or fatal bleeding): RRR (%) [4]: 12%
- Net clinical benefit (CV death, MI, stroke, or TIMI major bleeding): HR [4]: 1.00
- Net clinical benefit (CV death, MI, stroke, or TIMI major bleeding): RRR (%) [4]: 0%
- ischemic events prevented if 10,000 patients were started on treatment versus placebo (90 mg bid): 40
